Data as given in patent US20070167430A1, “Compounds useful in therapy” (priority 2004, published 2007).

Molecular target: T1, human V1A receptor (Homo sapiens, UniProt P37288)
T1 construct: expressed in transfected cells
Test: V1A filter binding assay ([3H]-AVP binding to CHO-hV1A membranes)
Settings: screen 1.0, [3H]-AVP displacement
Method: 1.0 V1A Filter Binding Assay
Receptor binding assays were performed on cellular membranes prepared from CHO cells stably expressing the human V1A receptor, (CHO-hV1A). The CHO-hV1A cell line was kindly provided under a licensing agreement by Marc Thibonnier, Dept. of Medicine, Case Western Reserve University School of Medicine, Cleveland, Ohio. CHO-hV1A cells were routinely maintained at 37° C. in humidified atmosphere with 5% CO2 in DMEM/Hams F12 nutrient mix supplemented with 10% fetal bovine serum, 2 mM L-glutamine, 15 mM HEPES and 400 μg/ml G418. For bulk production of cell pellets, adherent CHO-hV1A cells were grown to confluency of 90-100% in 850 cm^2 roller bottles containing a medium of DMEM/Hams F12 Nutrient Mix supplemented with 10% fetal bovine serum, 2 mM L-glutamine and 15 mM HEPES. Confluent CHO-hV1A cells were washed with phosphate-buffered saline (PBS), harvested into ice cold PBS and centrifuged at 1,000 rpm. Cell pellets were stored at −80° C. until use. Cell pellets were thawed on ice and homogenised in membrane preparation buffer consisting of 50 mM Tris-HCl, pH 7.4, 5 mM MgCl2 and supplemented with a protease inhibitor cocktail, (Roche). The cell homogenate was centrifuged at 1000 rpm, 10 min, 4° C. and the supernatant was removed and stored on ice. The remaining pellet was homogenised and centrifuged as before. The supernatants were pooled and centrifuged at 25,000×g for 30 min at 4° C. The pellet was resuspended in freezing buffer consisting of 50 mM Tris-HCl, pH 7.4, 5 mM MgCl2 and 20% glycerol and stored in small aliquots at −80° C. until use. Protein concentration was determined using Bradford reagent and BSA as a standard.
Protein linearity followed by saturation binding studies were performed on each new batch of membrane. Membrane concentration was chosen that gave specific binding on the linear portion of the curve. Saturation binding studies were then performed using various concentrations of [^3H]-arginine vasopressin, [^3H]-AVP (0.05 nM-100 nM) and the Kd and Bmax determined.
Compounds were tested for their effects on [^3H]-AVP binding to CHO-hV1A membranes, (^3H-AVP; specific activity 65.5 Ci/mmol; NEN Life Sciences). Compounds were solubilised in dimethylsulfoxide (DMSO) and diluted to working concentration of 10% DMSO with assay buffer containing 50 mM Tris-HCL pH 7.4, 5 mM MgCl2 and 0.05% BSA. […] The binding reaction was initiated by the addition of 200 μl membrane and the plates were gently shaken for 60 min at room temperature. The reaction was terminated by rapid filtration using a Filtermate Cell Harvester (Packard Instruments) through a 96-well GF/B UniFilter Plate which had been presoaked in 0.5% polyethyleneimine to prevent peptide sticking. The filters were washed three times with 1 ml ice cold wash buffer containing 50 mM Tris-HCL pH 7.4 and 5 mM MgCl2. The plates were dried and 50 μl Microscint-0 (Packard instruments) was added to each well. The plates were sealed and counted on a TopCount Microplate Scintillation Counter (Packard Instruments). Non-specific binding (NSB) was determined using 1 μM unlabelled d(CH2)5Tyr(Me)AVP ([β-mercapto-β,β-cyclopentamethylenepropionyl,0-Me-Tyr^2,Arg^8]-vasopressin) (βMCPVP), (Sigma). The radioligand binding data was analysed using a four parameter logistic equation with the min forced to 0%. The slope was free fitted and fell between −0.75 and −1.25 for valid curves. Specific binding was calculated by subtracting the mean NSB cpm from the mean Total cpm. For test compounds the amount of ligand bound to the receptor was expressed as % bound=(sample cpm−mean NSB cpm)/specific binding cpm×100. The % bound was plotted against the concentration of test compound and a sigmoidal curve was fitted. The inhibitory dissociation constant (Ki) was calculated using the Cheng-Prusoff equation: Ki=IC50/(1+[L]/Kd) where [L] is the concentration of ligand present in the well and Kd is the dissociation constant of the radioligand obtained from Scatchard plot analysis. […]

T1 sequence (P37288 whole entry): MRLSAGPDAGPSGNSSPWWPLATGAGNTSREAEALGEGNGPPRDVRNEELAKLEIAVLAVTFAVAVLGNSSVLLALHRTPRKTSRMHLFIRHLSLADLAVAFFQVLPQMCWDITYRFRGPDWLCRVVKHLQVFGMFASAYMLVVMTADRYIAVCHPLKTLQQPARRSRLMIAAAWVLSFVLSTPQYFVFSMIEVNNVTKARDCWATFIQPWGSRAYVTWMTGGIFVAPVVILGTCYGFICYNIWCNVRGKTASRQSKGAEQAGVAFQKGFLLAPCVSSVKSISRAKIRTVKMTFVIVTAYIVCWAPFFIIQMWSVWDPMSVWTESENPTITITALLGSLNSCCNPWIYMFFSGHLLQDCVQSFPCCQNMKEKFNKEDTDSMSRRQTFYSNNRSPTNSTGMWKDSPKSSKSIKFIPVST

Structure (SMILES)	Ki [nM]
CN1Cc2cc(Cl)ccc2-n2c(nnc2C2CCN(C(=O)C3(C)CCCCC3)CC2)C1 [Example 9, [4-(8-Chloro-5-methyl-5,6-dihydro-4H-2,3,5,10b-tetraaza-benzo[e]azulen-1-yl)-piperidin-1-yl]-(1-methyl-cyclohexyl)-methanone]	59.9
CN1Cc2cc(Cl)ccc2-n2c(nnc2C2CCN(C(=O)c3cc4ccccc4[nH]3)CC2)C1 [Example 64, [4-(8-Chloro-5-methyl-5,6-dihydro-4H-2,3,5,10b-tetraaza-benzo[e]azulen-1-yl)-piperidin-1-yl]-(1H-indol-2-yl)-methanone]	34.7
CN1Cc2cc(Cl)ccc2-n2c(nnc2C2CCN(C(=O)c3c[nH]c4ccccc34)CC2)C1 [Example 1, [4-(8-Chloro-5-methyl-5,6-dihydro-4H-2,3,5,10b-tetraaza-benzo[e]azulen-1-yl)-piperidin-1-yl]-(1H-indol-3-yl)-methanone]	73.8
Cc1ccccc1CC(=O)N1CCC(c2nnc3n2-c2ccc(Cl)cc2CN(C)C3)CC1 [Example 2, 1-[4-(8-Chloro-5-methyl-5,6-dihydro-4H-2,3,5,10b-tetraaza-benzo[e]azulen-1-yl)-piperidin-1-yl]-2-o-tolyl-ethanone]	35
CN1Cc2cc(Cl)ccc2-n2c(nnc2C2CCN(C(=O)c3ccc4cc[nH]c4c3)CC2)C1 [Example 67, [4-(8-Chloro-5-methyl-5,6-dihydro-4H-2,3,5,10b-tetraaza-benzo[e]azulen-1-yl)-piperidin-1-yl]-(1H-indol-6-yl)-methanone]	15.9
CN1Cc2cc(Cl)ccc2-n2c(nnc2C2CCN(C(=O)CC3CC3)CC2)C1 [Example 18, 1-[4-(8-Chloro-5-methyl-5,6-dihydro-4H-2,3,5,10b-tetraaza-benzo[e]azulen-1-yl)-piperidin-1-yl]-2-cyclopropyl-ethanone]	62.1
